Each block holds one compound with its values, some of them ahead of it.
What was measured:
[1] = test system: UGT enzymes of pooled human jejunum microsomes; experiment: Inhibition of estradiol (E2) glucuronidation in pooled human jejunum microsomes; format: biochemical; conditions: jejunum HJ61, E2 50 μM
Description: Compounds were eluted using a binary solvent gradient system where solvent A was dilute phosphoric acid (pH 3) and solvent B was 80:20 acetonitrile-methanol. […] Detection was at 280 nm.

[2] = target: T1, UGT1A1 (Homo sapiens, UniProt P22309); experiment: Inhibition of raloxifene glucuronidation by recombinant UGT1A1 Supersomes; conditions: UGT1A1
T1 sequence (P22309 26-533): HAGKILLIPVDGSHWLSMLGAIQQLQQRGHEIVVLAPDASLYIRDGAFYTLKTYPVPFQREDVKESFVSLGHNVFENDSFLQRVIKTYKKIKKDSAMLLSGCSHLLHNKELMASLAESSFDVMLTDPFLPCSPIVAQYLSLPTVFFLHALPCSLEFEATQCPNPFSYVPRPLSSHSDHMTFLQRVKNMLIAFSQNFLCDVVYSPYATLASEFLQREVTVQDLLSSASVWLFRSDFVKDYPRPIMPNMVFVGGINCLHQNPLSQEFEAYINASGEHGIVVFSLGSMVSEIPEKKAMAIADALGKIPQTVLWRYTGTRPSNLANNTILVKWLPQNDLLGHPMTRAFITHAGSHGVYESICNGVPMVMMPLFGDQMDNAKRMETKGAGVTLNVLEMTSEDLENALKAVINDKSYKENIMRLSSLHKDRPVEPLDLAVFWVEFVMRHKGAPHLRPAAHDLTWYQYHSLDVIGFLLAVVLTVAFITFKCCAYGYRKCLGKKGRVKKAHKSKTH
Description: (§1) Compounds were eluted using a binary solvent gradient system. Solvent A was water brought to pH 8 with NH4OH. Solvent B was methanol. Solvent flow rate was 1 ml/min and the column temperature was maintained at 50° C. Detection was at 280 nm. […] The system was then returned to the initial conditions and equilibrated for 3 min.

[3] = target: T2, UGT1A9 (Homo sapiens, UniProt O60656); experiment: Inhibition of raloxifene glucuronidation by recombinant UGT1A9 Supersomes; conditions: for inhibition of raloxifene glucuronidation, in words: UGT1A9; for activity at 15 min, 10 µM / activity at 15 min, 25 µM / activity at 15 min, 50 µM: human, Supersomes with recombinant human UGT1A9, pH 7.5, probe raloxifene 50 μM; for Inhibition of raloxifene glucuronidation, UGT1A9, second line per inhibitor (G2): second line (G2, metabolite not given), raloxifene 50 μM, 250 μg/ml Supersomes, 1 mM UDPGA, 15 min
T2 sequence (O60656 26-530): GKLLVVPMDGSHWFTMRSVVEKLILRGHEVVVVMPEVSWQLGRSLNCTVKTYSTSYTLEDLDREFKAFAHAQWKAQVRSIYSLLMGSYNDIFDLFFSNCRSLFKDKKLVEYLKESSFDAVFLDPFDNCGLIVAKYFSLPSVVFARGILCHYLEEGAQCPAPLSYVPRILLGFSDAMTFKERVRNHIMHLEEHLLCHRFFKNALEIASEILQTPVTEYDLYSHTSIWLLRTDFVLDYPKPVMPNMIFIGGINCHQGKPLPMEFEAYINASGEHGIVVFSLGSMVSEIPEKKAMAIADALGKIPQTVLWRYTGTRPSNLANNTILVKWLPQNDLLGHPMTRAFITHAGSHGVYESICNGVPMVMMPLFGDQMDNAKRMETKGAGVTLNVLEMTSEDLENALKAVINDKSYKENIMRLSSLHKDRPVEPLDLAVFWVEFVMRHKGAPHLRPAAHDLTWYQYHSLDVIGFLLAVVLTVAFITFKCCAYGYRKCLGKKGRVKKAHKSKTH

[4] = target: T3, UGT1A3 (Homo sapiens, UniProt P35503); experiment: Inhibition of raloxifene glucuronidation by recombinant UGT1A3 Supersomes; conditions: for inhibition of raloxifene glucuronidation, in words: UGT1A3; for activity at 15 min, 10 µM / activity at 15 min, 25 µM / activity at 15 min, 50 µM: human; for activity at 15 min, 10 µM: inhibitor 10 μM; for activity at 15 min, 25 µM: inhibitor 25 μM; for activity at 15 min, 50 µM: inhibitor 50 μM
T3 sequence (P35503 29-534): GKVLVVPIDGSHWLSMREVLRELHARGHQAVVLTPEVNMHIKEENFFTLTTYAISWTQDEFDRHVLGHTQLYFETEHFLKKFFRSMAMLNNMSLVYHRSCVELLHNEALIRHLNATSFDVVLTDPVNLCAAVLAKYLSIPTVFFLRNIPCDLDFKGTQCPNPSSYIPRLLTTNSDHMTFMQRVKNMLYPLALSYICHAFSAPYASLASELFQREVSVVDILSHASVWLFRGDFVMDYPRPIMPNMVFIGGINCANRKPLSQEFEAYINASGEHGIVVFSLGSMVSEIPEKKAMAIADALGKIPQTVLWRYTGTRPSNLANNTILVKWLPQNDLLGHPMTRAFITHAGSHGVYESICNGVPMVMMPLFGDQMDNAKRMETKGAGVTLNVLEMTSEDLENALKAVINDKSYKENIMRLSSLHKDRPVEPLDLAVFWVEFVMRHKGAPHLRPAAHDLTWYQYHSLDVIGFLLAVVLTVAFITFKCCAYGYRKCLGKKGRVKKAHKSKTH
Description: as §1

[5] = Supersomes with recombinant human UGT1A3, pH 7.5, probe raloxifene 50 μM, formation of glucuronide G1, % of control metabolism, raloxifene G1, UGT1A3
[6] = Supersomes with recombinant human UGT1A3, pH 7.5, probe raloxifene 50 μM, formation of glucuronide G2, % of control metabolism, raloxifene G2, UGT1A3
[7] = recombinant UGT1A3 Supersomes, pH 7.5, probe raloxifene 50 μM (formation of glucuronide G1), Inhibition of raloxifene glucuronidation, G1, UGT1A3, G1, raloxifene 50 μM, 250 μg/ml Supersomes, 1 mM UDPGA, 15 min
[8] = recombinant UGT1A3 Supersomes, pH 7.5, probe raloxifene 50 μM (formation of glucuronide G2), Inhibition of raloxifene glucuronidation, G2, UGT1A3, G2, raloxifene 50 μM, 250 μg/ml Supersomes, 1 mM UDPGA, 15 min

- residual metabolism (% of control), E2-3-β-D-glucuronide ([1]; inhibitor 50 μM): 26 (1) %
- residual metabolism (% of control), E2-17-β-D-glucuronide ([1]; inhibitor 50 μM): 61 (4) %
Structure (SMILES): O=C(O[C@@H]1Cc2c(O)cc(O)cc2O[C@@H]1c1ccc(O)c(O)c1)c1cc(O)c(O)c(O)c1 [Epicatechin gallate]

Structure (SMILES): O=c1c(O)c(-c2ccc(O)c(O)c2)oc2cc(O)cc(O)c12 [Quercetin]
- inhibition of raloxifene glucuronidation, in words [2]: good inhibitor
- inhibition of raloxifene glucuronidation, in words [3]: good inhibitor
- activity at 15 min, 10 µM ([3]; formation of glucuronide G1, % of control metabolism, raloxifene G1, UGT1A9, inhibitor 10 μM): 59%
- activity at 15 min, 25 µM ([3]; formation of glucuronide G1, % of control metabolism, raloxifene G1, UGT1A9, inhibitor 25 μM): 45%
- activity at 15 min, 50 µM ([3]; formation of glucuronide G1, % of control metabolism, raloxifene G1, UGT1A9, inhibitor 50 μM): 26%
- activity at 15 min, 10 µM ([3]; formation of glucuronide G2, % of control metabolism, raloxifene G2, UGT1A9, inhibitor 10 μM): 56%
- activity at 15 min, 25 µM ([3]; formation of glucuronide G2, % of control metabolism, raloxifene G2, UGT1A9, inhibitor 25 μM): 39%
- activity at 15 min, 50 µM ([3]; formation of glucuronide G2, % of control metabolism, raloxifene G2, UGT1A9, inhibitor 50 μM): 24%
- Inhibition of raloxifene glucuronidation, UGT1A9, second line per inhibitor (G2) ([3]; inhibitor 5 μM): 85 (5)
- Inhibition of raloxifene glucuronidation, UGT1A9, second line per inhibitor (G2) ([3]; inhibitor 10 μM): 56 (3)
- Inhibition of raloxifene glucuronidation, UGT1A9, second line per inhibitor (G2) ([3]; inhibitor 25 μM): 39 (2)
- Inhibition of raloxifene glucuronidation, UGT1A9, second line per inhibitor (G2) ([3]; inhibitor 50 μM): 24 (2)
- inhibition of raloxifene glucuronidation, in words [4]: good inhibitor
- activity at 15 min, 10 µM [4, 5]: 81%
- activity at 15 min, 25 µM [4, 5]: 53%
- activity at 15 min, 50 µM [4, 5]: 28%
- activity at 15 min, 10 µM [4, 6]: 56%
- activity at 15 min, 25 µM [4, 6]: 49%
- activity at 15 min, 50 µM [4, 6]: 25%
- activity at 15 min, 10 µM [4, 7]: 72%
- activity at 15 min, 25 µM [4, 7]: 52%
- activity at 15 min, 50 µM [4, 7]: 28%
- activity at 15 min, 10 µM [4, 8]: 73%
- activity at 15 min, 25 µM [4, 8]: 49%
- activity at 15 min, 50 µM [4, 8]: 25%
- residual metabolism (% of control), E2-3-β-D-glucuronide ([1]; inhibitor 25 μM): 44 (5) %
- residual metabolism (% of control), E2-17-β-D-glucuronide ([1]; inhibitor 25 μM): 72 (3) %
- residual metabolism (% of control), E2-3-β-D-glucuronide ([1]; inhibitor 50 μM): 29 (2) %
- residual metabolism (% of control), E2-17-β-D-glucuronide ([1]; inhibitor 50 μM): 56 (2) %
- residual metabolism (% of control), E2-3-β-D-glucuronide ([1]; inhibitor 100 μM): 12 (1) %
- residual metabolism (% of control), E2-17-β-D-glucuronide ([1]; inhibitor 100 μM): 42 (7) %

Structure (SMILES): C=CCc1ccc(O)c(OC)c1 [Eugenol]
- inhibition of raloxifene glucuronidation, in words [2]: ineffective
- inhibition of raloxifene glucuronidation, in words [3]: amongst the best inhibitors
- inhibition of raloxifene glucuronidation, in words [4]: ineffective
